From patent US6429286B1, “Immunoregulatory molecules for costimulatory signal transduction” (priority 1997, dated 2002)
No end group written: not given here.

Tests used:
[1] = test system: anti-mouse CTLA-4 monoclonal antibody; test: ELISA: reactivity of plate-coated phage clones with the anti-mouse CTLA-4 monoclonal antibody; format: binding, hamster; settings: phage 4x10^9 virions/well, antibody 200 ng/ml, FIG. 2 and 3
Method: The obtained 58 phage clones were subjected to primary screening with ELISA. A 96 well ELISA plate (Sumitomo Bakelite, Tokyo) was coated with each phage (4×10^9 virions/well/40 μl) purified as described by Smith et al. (G. P. Smith, Method in Enzymology, Vol. 217, p.228-257 (1993), Academic Press) at 4° C. overnight. The plate was washed with TBST and was blocked with 100 μl/well of 50 mM Tris-HCl, pH 7.5, 150 mM NaCl supplemented with 0.02% NaN3 and 1% BSA at room temperature for 2 hours. After washing with TBST, the plate was added with the anti-mouse CTLA-4 monoclonal antibody (200 ng/ml/well/100 μl) and reacted at room temperature for 1 hour. After washing with TBST; the plate was reacted with anti-hamster IgG antibody (Zymet, California) labeled with alkaline phosphatase diluted to 250-fold with TBS at room temperature for 1 hour. After washing, the plate was added with the substrate sodium p-nitrophenylphosphate hexahydrate (Wako Junyaku, Osaka) was added and absorbance at 405 nm was measured.
Whether each of the motifs as shown in Example 4 specifically binds to the anti-mouse CTLA-4 monoclonal antibody was investigated. A degree of specificity was determined by ELISA as described in Example 3. As a negative control, anti-mouse CD28 antibody (Phamingen, San Diego), having the same isotype with the anti-mouse CTLA-4 monoclonal antibody, and hamster IgG were used. Anti-hamster IgG antibody was used as a detection antibody. […] E. coli producing the phage expressing F2 sequence and the phage expressing F6 sequence have been deposited by the applicant in accordance with the Budapest Treaty as Escherichia coli F2 [FERM BP-6009] and as Escherichia coli F6 [FERM BP-60103], respectively, at National Institute of Bioscience and Human-Technology Agency of Industrial Science and Technology, 1-3, Higashi 1-chome, Tsukuba-shi, Ibaraki-ken, 305, Japan, on Apr. 14, 1997 (original deposition date: transferred from FERM P-16192 and FERM P-16193, respectively, to the deposition under the Budapest Treaty on Jul. 4, 1997).

[2] = test system: T cells (spleen cells); test: T cell growth, [3H]-thymidine take-up by spleen cells of mice primed with W. T. phage; format: cell-based, BALB/c mice; settings: phage 0.015 to 5 μg/ml, three days culture, FIG. 4
Method: BALB/c mice (6 weeks old; four animals per group) were used in an experiment and the phages were purified as described by Smith et al. (G. P. Smith, Method in Enzymology, Vol. 217, p.228-257 (1993), Academic Press). An amount of the phages was measured using protein assay kit (BioRad) with bovine serum albumin as a standard and expressed as a protein concentration.
First, for antigen, stimulation, BALB/c mice were administered intraperitoneally with 10 μg (200 μl/PBS) of phage (W. T.) not expressing pIII protein. Four weeks after the administration, spleen cells were removed from each mouse in the usual manner. The spleen cells were added to each well of 96-well culture plate at 1.5×10^5 cells/well. To each well was added purified W. T. or phages expressing any of F1 to F6 sequence at a final concentration of 0.015 to 5 μg/ml to make a total volume of 200 μl (RPMS 1640 medium containing 10% FCS) Triplicates were used for each sample. After incubating these samples on ice for 30 minutes, the cells were cultured under condition of 5% CO2 at 37° C. for three days. Eighteen hours before completion of culture, the cells were pulse-labeled with [^3H]-thymidine (0.5 μCi/well). The cells were harvested with a cell harvester and a take-up of [^3H]-thymidine was measured with a liquid scintillation counter.

[3] = target: T1, mouse CD80-Ig (Mus musculus, UniProt Q00609); test: ELISA: binding of plate-coated phages to mouse CD80-Ig; settings: for binding to mouse CD80-Ig: ELISA, 200 to 1000 ng/35 μl mouse CD80-Ig, FIG. 5
T1 construct: Ig (immunoglobulin fusion partner); made in house; host or cells: COS7 cells (pCDM8 plasmid), purified on Protein A Sepharose
T1 sequence (Q00609 38-246 limits assumed): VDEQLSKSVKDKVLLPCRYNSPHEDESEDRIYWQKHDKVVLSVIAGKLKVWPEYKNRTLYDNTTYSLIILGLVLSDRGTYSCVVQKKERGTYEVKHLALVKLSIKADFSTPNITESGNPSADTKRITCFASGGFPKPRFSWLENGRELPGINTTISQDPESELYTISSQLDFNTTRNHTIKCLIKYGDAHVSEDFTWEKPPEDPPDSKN
Method: (§1) The binding activity was measured by ELISA. A 96-well ELISA plate (Sumitomo Bakelite, Tokyo) was coated with phages expressing F2 or F6 sequence (4×10^9 virions/well/40 pi) at 4° C. overnight and then blocked with 50 mM Tris-HCl, pH 7.5, 150 mM NaCl (TBS) supplemented with 1% BSA at room temperature for 2 hours. After washing the plate with TBST, the plate was added with 200 to 1000 ng/35 μl of mouse CD80-Ig diluted with PBS and reacted at room temperature for 1 hour. After washing with TBST, the plate was reacted with alkali phosphatase-labeled anti-human IgG antibody (Zymet, California) diluted with TBS by 100-fold at room temperature for 1 hour. After washing, to the plate was added the substrate sodium p-nitrophenylphosphate hexahydrate and absorbance at 405 nm was measured.

[4] = target: T2, human CD80-Ig (Homo sapiens, UniProt P33681); test: ELISA: binding of phage expressing F2 sequence to human CD80-Ig; settings: mouse CTLA-4-Ig and human IgG as negative control, FIG. 7
T2 construct: a fused gene of human CD80 extracellular domain and human Ig Cγl domain; made in house; host or cells: COS7 cells (pCDM8 plasmid, DEAE-dextran), purified on Protein A Sepharose
T2 sequence (P33681 35-242 limits assumed): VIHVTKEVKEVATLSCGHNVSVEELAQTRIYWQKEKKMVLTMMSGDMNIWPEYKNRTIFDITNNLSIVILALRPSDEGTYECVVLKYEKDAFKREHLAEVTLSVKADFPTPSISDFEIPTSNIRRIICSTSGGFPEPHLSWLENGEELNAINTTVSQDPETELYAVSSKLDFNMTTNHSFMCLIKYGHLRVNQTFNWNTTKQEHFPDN
Method: as §1
Then, whether phage expressing F2 sequence specifically binds to human CD80-Ig was investigated in this Example as described in Example 7, FIG. 5.
Human CD80-Ig was prepared by constructing a fused gene of human CD80 extracellular domain and human Ig Cγl domain as described by Linsley et al. (J. Exp. Med. Vol. 173, p.721-730 (1991)). An expression plasmid pCDM8 incorporating the fused gene fragment was introduced into COS7 cells by DEAE-dextran method. After culturing for 72 hours, human CD80-Ig was purified from culture supernatant with Protein A Sepharose (Pharmacia). […]

[5] = test system: T cells (spleen cells); test: T cell growth stimulating activity in spleen cells of mice immunized with egg lysozyme; format: cell-based, BALB/c mice; settings: egg lysozyme 3 μg/ml plus phage 1 μg/ml added separately, W. T. phage as negative control, FIG. 8
Text: In Example 6, there were used a phage protein as a primary antigen stimulation and the phage protein with expressed F2 or F6 sequence as a secondary stimulation in vitro. That is, in Example 6, a phage protein was used as an antigen and a secondary stimulation was made in a condition where both said antigen and F2 or F6 sequence are on the same particle. In this Example, however, the activity to stimulate the growth of T cells of phages expressing F2 or F6 as described in Example 6 was investigated wherein an antigen irrelevant to the phage (egg lysozyme) was used as a primary antigen stimulation and the egg lysozyme plus the phage particles expressing F2 or F6 sequence were separately added as a secondary stimulation.
Egg lysozyme 10 μg (100 μl/Freund's incomplete adjuvant (FIA)) was subcutaneously injected to BALB/c mice. Four weeks after administration, spleen cells and the relevant lymph nodes were removed from each mouse in a usual manner. Each well of 96-well culture plate was added with the spleen cells at 1.5×10^5 cells/well and with egg lysozyme at 3 μg/ml. Phages expressing F2 or F6 sequence were added at 1 μg/ml either at the same time, 1 day after, or 2 days after, the addition of egg lysozyme. As a negative control, W. T. phage was added. Measurement after culture was as described in Example 6.

[6] = test system: T cells (spleen cells); test: Effect of CD80-Ig or CD86-Ig on the T cell growth stimulating activity of the phages; format: cell-based, BALB/c mice; settings: phage 1 μg/ml, egg lysozyme 3 μg/ml; for effect of CD80-Ig on T cell growth stimulating activity: CD80-Ig 0-1 μg/ml, FIG. 9 and 10
Method: Each phage expressing F2 or F6 sequence reacted with anti-mouse CTLA-4 monoclonal antibody as shown in Example 5. Phage expressing F2 specifically bound to mouse CD80-Ig as shown in Example 7.
Egg lysozyme 50 μg (100 μl/PBS) was intraperitoneally administered to BALB/c mice. Four weeks after administration, spleen cells were removed from each mouse in a usual manner. In this Example, to each well of a 96-well culture plate were added the spleen cells at 1.5×10^5 cells/well and egg lysozyme at 3 μg/ml together with phage expressing F2 or F6 (1 μg/ml) and CD80-Ig or CD86-Ig or human Ig as a negative control at 0-1 μg/ml. The T cell growth stimulating activity was determined as described in Example 6.

[7] = test system: anti-HBsAg antibody production; test: Anti-HBsAg antibody production in mice immunized with yHBsAg together with phages; format: in vivo, BALB/c mice; settings: i.p. yHBsAg 10 μg with phage, boost at 15 days, blood three weeks after immunization, FIG. 11
Method: BALB/c mice (four animals per group) were administered intraperitoneally with either 10 μg (100 μl/PBS) of recombinant HBsAg produced in yeast (yHBsAg; Juridical Foundation The Chemo-Sero-Therapeutic Research Institute) alone or in combination with phages expressing F2 or F6 (10: pg/100 μl). Fifteen days after primary immunization, th-e same samples were administered intraperitoneally., Three weeks after primary immunization, each mouse was bled. Serum was diluted with PBS-to 50-fold, 200-fold and 800-fold and then anti-HBsAg antibody titer was measured with Ausab EIA kit (Abbott Laboratories).
The antibody titer was measured using a positive control attached to the kit as a standard.

[8] = target: T3, mouse CTLA-4-Ig (mouse, UniProt P09793 36-161); test: ELISA, F2 phage coated, reacted with mouse CD80-Ig, mouse CTLA-4-Ig and human IgG
T3 construct: also called CTLA-4-Ig chimeric molecule; not shown: Ig part of the chimera; not described for this construct

Molecule	reactivity with anti-mouse CTLA-4 monoclonal antibody [1]	growth of T cells as compared to W. T. phage [2]	binding to mouse CD80-Ig [3]	T cell growth stimulating activity, egg lysozyme as antigen [5]	effect of CD80-Ig on T cell growth stimulating activity [6]	anti-HBsAg antibody titer relative to group immunized with HBsAg alone (= 1) [7]	further results
HYGDCRYDLGSCRGA (cysteine pairing not given here) [F4]	reacted weakly	approximately equivalent to that with W. T. phage					
GFVCSGIFAVGVGRC (cysteine pairing not given here) [F2]	reacted most strongly		bound to mouse CD80-Ig in a concentration-dependent manner	exhibited the antigen-specific activity to stimulate the growth of T cells	greatly inhibited	17.9	binding specificity to mouse CD80-Ig ([3]; ELISA against mouse CD80-Ig, mouse CTLA-4-Ig and human IgG, FIG. 6): specifically reacted with mouse CD80-Ig; binding to human CD80-Ig [4]: specifically bound to human CD80-Ig
GLHSRCHIGRDCSSA (cysteine pairing not given here) [F1]	reacted weakly	approximately equivalent to that with W. T. phage					
SCVFHHSGRYWGRCV (cysteine pairing not given here) [F3]	reacted more weakly	approximately equivalent to that with W. T. phage					
APGVRLGCAVLGRYC (cysteine pairing not given here) [F6]	reacted most strongly		do not bind to CD80/CD86 molecules	exhibited the antigen-specific activity to stimulate the growth of T cells	did not inhibit	11.9	effect of CD86-Ig on T cell growth stimulating activity ([6]; CD86-Ig 0-1 μg/ml, FIG. 10): did not inhibit
phage expressing F2 sequence (also called F2 phage) ADGAGFVCSGIFAVGVGRCGAAGAETVESCLAKPHTENSFTNVWKDDKTLDRYANYEGCLWNATGVVVCTGDETQCYGTWVPIGLAIPENEGGGSEGGGSEGGGSEGGGTKPPEYGDTPIPGYTYINPLDGTYPPGTEQNPANPNPSLEESQPLNTFMFQNNRFRNRQGALTVYTGTVTQGTDPVKTYYQYTPVSSKAMYDAYWNGKFRDCAFHSGFNEDPFVCEYQGQSSDLPQPPVNAGGGSGGGSGGGSEGGGSEGGGSEGGGSEGGGSGGGSGSGDFDYEKMANANKGAMTENADENALQSDAKGKLDSVATDYGAAIDGFIGDVSGLANGNGATGDFAGSNSQMAQVGDGDNSPLMNNFRQYLPSLPQSVECRPYVFGAGKPYEFSIDCDKINLFRGVFAFLLYVATFMYVFSTFANILRNKES							binding result [8]: no binding
